Patent EP1792623B1, “Use of extracts and constituents of leontopodium as enhancers of cholinergic function” (Leopold-Franzens-Universität Innsbruck, priority 2005, dated 2007)
Counter-ions that a name gives are not always drawn.

Key:
acetylcholinesterase = type: biochemical; conditions: 100 µM, after 60 min, in comparison to medium control, n=4
Experimental: Experiments are carried out applying Ellman's method in a 96-well microplate assay described by Ingkaninan et al, Journal of Chromatography A 827 (2000) p. 6173 and Rhee et al, Journal of Chromatography A 915 (2001) p. 217-223. In addition to buffer A described above, a buffer containing 0.1 M NaCl and 0.02 M MgClx2.6 H2O in buffer A is used for preparing a 3 mM solution of DTNB. For the microplate assay the substrate ATCI is dissolved 15 mM in water (HPLC grade). The enzyme stock solution is diluted with buffer A to get 0.22 U/ml. In the 96-well plates, 25 µl of 15 mM ATCl, 125 µl of 3 mM DTNB, 50 µl of buffer A, and 25 µl of sample (10 mM in MeOH, respectively DMSO (dimethylsulfoxide), diluted ten times with buffer A) are added. […] […] The absorbance of the product (2-nitrobenzoate-5-mercapto thioline) is measured at 405 nm with a Chameleon 5025 (Hidex, Finland) microplate reader 0, 15, 30, 45 and 60 minutes after adding 25 µl of 0.22 U/ml acetylcholinesterase-solution to the reaction mixture. All experiments are performed 4 times (n=4) and the data are statistically processed using the SPSS 11.5 program package. Percentage of inhibition is calculated by comparing the rates for the sample to the blank (10% MeOH, resp. DMSO, in buffer).

[1] = tested on: C56BL/6N female, 3-month mice; assay: T-maze continuous alternation task; type: in vivo
Experimental: (§1) Animals: C56BL/6N female, 3-month mice, weighing 20 - 27 g, were used in the present study. The animals were housed in groups of six to ten in cages (40 (L) x 25 (W) x 15 (H) cm) placed in a room at a constant temperature (22±1 °C), 12-light/ 12-dark cycle (07:00-19:00 h), with food and water ad libitum. Experiments were conducted between 09:00 and 16:00h.
(§2) Surgery: Mice were anaesthetized with Pentobarbital sodium (60 mg/kg, i.p.) and placed in a stereotaxic frame. A guide cannula (gauge 25, o.d. 0.52 mm, i.d, 0.26 mm and 7 mm long) was stereotaxically implanted through a hole on the skull into the brain area 0.5 mm higher than the third cerebral ventricle (-0.1 mm posterior, 0.8 mm lateral to bregma, -2.2 mm ventral to the dura) (Franklin KBJ, Paxinos G (1997) The mouse brain in stereotaxic coordinates. Academic Press San Diego). Guide cannula was secured to the skull using two small screws and dental cement. The microinjector (Hamilton gauge 32, o.d. 0.24 mm and i.d. 0.11 mm, 7.5 mm long) protruded 0.5 mm from the tip of the guide cannula to reach the cerebral ventricle. Mice recovered for 5 days before any experimentation was done.
(§3) Drugs: Scopolamine hydrobromide (Sigma, St. Louis, MO, U.S.A.) was dissolved in saline. Isocomene was dissolved in vehicle solution (3 parts DMSO : 7 parts sterile water). The animals were randomly divided into experimental groups and administered a cerebral ventricle injection of saline, scopolamine, isocomene or scopolamine and isocomene in a volume µl during 1 min. The injector was left in place an extra 1 min for drug diffusion after injection. These substances and vehicle were injected 15 min prior to the test.
Experimental design and drug application: Animals were randomly divided into three experimental groups (6-9 mice per group) as follows: vehicle; scopolamine hybrobromide 20 µg (50 nmol) in 1µl ICV, isocomene 8.16 µg (40 nmol) in 2µl ICV, and scopolamine hybrobromide 20 µg plus isocomene 2 µg ICV. […]

[2] = tested on: C56BL/6N female, 3-month mice; assay: Object recognition task (scopolamine-induced learning deficit); type: in vivo
Experimental: as §1, §2, §3
Experimental design and drug application: Animals were randomly divided into […] experimental groups (6-9 mice per group) as follows: vehicle; scopolamine hybrobromide 20 µg (50 nmol) in 1µl ICV, isocomene 8.16 µg (40 nmol) in 2µl ICV, and scopolamine hybrobromide 20 µg plus isocomene 2 µg ICV. All substances were injected 15 min before the test (T-maze and open field) or before the training trial T1 (object recognition test) through the 7.5 mm long injector connected with i.d. 0.28 mm polyethylene tubing to 5 µl Hamilton syringe.
Apparatus: The test apparatus consisted of a box made of Plexiglas (40 (L) x 25 (W) x 15 (H) cm), which was illuminated by a lamp above the box. In the different parts of the apparatus, the light intensity was equal at 100 lux. The objects to be discriminated were made of plastic or metal, were in the different shapes: cubes and cylinders 1.5-cm high in white or green colour; they could not be displaced by mice. In addition, these objects had no genuine significance for mice and had never been associated with a reinforcement.
Procedure: The object recognition test was performed as described elsewhere (Ennaceur A, Delacour J (1988) A new one-trial test for neurobiological studies of memory in rats. 1: Behavioural data. Behav Brain Res. 31: 47-59). On the day before testing, the animals were allowed to explore the apparatus for 10 min (without objects), while on the testing day, a session of two 10-min trials was given. During the training trial (sample trial) (T1), two identical objects were placed opposite sides 8 cm from the short walls. A mouse was placed in the middle of apparatus and was left to explore these two identical objects in 10 min. After T1, the mouse was put back in its home cage and a 24-hour inter-trial interval was given. […]

[3] = scopolamine 20 µg ICV alone, T2
[4] = isocomene 8.16 µg ICV in mice given scopolamine 20 µg ICV

Molecule	inhibition (%) (acetylcholinesterase)	other results
1-acetyloxy-3-angeloyloxy-(4E,6E)-tetradeca-4,6-dien-8,10,12-triyne and the 4E,6Z isomer	16.5%	
15-acetoxy-modhephene	56.4%	
C=C(CO)[C@H]1Oc2ccc(C(C)=O)cc2[C@H]1O[C@@H]1O[C@H](CO)[C@@H](O)[C@H](O)[C@H]1O (relative stereo) [1-{(2R*,3R*)-2-[1-(hydroxymethyl)vinyl]-3-(β-D-gluco-pyranosyloxy)-2,3-dihydro-1-benzofuran-5-yl}-ethanone]	-0.6%	
CC(=O)OCC1=C[C@]2(C)CCC3[C@H](C)CCC32C1C (relative stereo) [[(1R*,3aS,6R)-1,3a,6-trimethyl-1,3a,4,5,5a,6,7,8-octahydrocyclo-penta[c]pentalen-2-yl]methylacetat]	61.8%	
C=C(C)C1COc2cc3oc(=O)ccc3c(O)c2O1 (centres unmarked) [5-hydroxy-obliquin]	1.9%	
C=C(C)C1COc2cc3oc(=O)ccc3c(OC)c2O1 (centres unmarked) [5-methoxy-obliquin]	3.4%	
CN1[C@@H]2C[C@@H](OC(=O)[C@H](CO)c3ccccc3)C[C@H]1[C@@H]1O[C@@H]12 [Scopolamine, Scopolamine hydrobromide]		alternation rate ([1]; scopolamine 20 µg ICV alone): pronounced decrease in alternation rate; discrimination index [2, 3]: zero; exploration ratio [2, 3]: ~1.0; exploration time ([2]; scopolamine 20 µg ICV alone, vs vehicle-treated control mice): no significant difference
C/C=C(/C)C(=O)OC[C@H]1[C@@H](Cc2cc(OC)c(OC)c(OC)c2)CO[C@@H]1c1cc(OC)c(OC)c(OC)c1 [[(2S,3R,4R)-4-(3,4,5-trimethoxy-benzyl)-2-(3,4,5-trimethoxy-phenyl)tetrahydrofuran-3-yl]methyl-(2Z)-2-methylbut-2-en-oate]	-6.4%	
C/C=C(/C)C(=O)OC[C@H]1[C@@H](Cc2ccc(OC)c(OC)c2)CO[C@@H]1c1cc(OC)c(OC)c(OC)c1 [[(2S,3R,4R)-4-(3,4-dimethoxy-benzyl)-2-(3,4,5-trimethoxy-phenyl)tetrahydrofuran-3-yl]methyl-(2Z)-2-methylbut-2-en-oate]	5.0%	
C/C=C(/C)C(=O)OC[C@H]1[C@@H](Cc2ccc(OC)c(OC)c2)CO[C@@H]1c1ccc(OC)c(OC)c1 [[(2S,3R,4R)-4-(3,4-dimethoxy-benzyl)-2-(3,4-dimethoxy-phenyl)tetrahydrofuran-3-yl]methyl-(2Z)-2-methylbut-2-en-oate]	17.5%	
C=C(C)C1COc2cc3oc(=O)ccc3cc2O1 (centres unmarked) [obliquine]	18.1%	
C[C@@H]1CC[C@@H]2C(C)(C)C[C@]3(C)CC=C[C@]123 [silphinene]	3.2%	
CC1=C[C@@H]2[C@@H](CC1)[C@@](C)(O)CC[C@H]2C(C)C [t-Cadinol]	10.3%	
(4a,7b,8a,9b,15a)-7,9-dihydroxy-15-{[(2Z)-2-methylbut-2-enoyl]oxy} kaur-16-en-19-oate	53.7%	
bisabolan A	23.3%	
bisabolan E	56.9%	
ent-kaur-16-enic-19-acid	35.6%	
isocomene	39.6%	alternation rate ([1]; 8.16 µg isocomene ICV alone, mean ± SEM, control mice 52 ± 2.46 %): 69.96 ± 2.42%; alternation rate [1, 4]: abolished this effect of scopolamine; discrimination index [2, 4]: potently increased; exploration ratio [2, 4]: potently increased
β -isocomene	40.8%	
